In patent publication US4481201A, “Pharmaceutical composition containing N,N^3 -di-(β-bromopropionyl)-N^1,N^2 -dispirotripiperazinium dichloride” (Vsesojuzny Nauchno-Issledovatelsky Khimoko-Farmasevtichesky …, priority 1981, dated 1984):
Entries after “also recorded” stand apart in the source; their conditions may differ. Read-outs that look alike come from different tables or passages of the source.

Key:
[1] = Toxicity on single and repeated administration to mice; assay type: in vivo; details: for MTD / LD50: mouse, in vivo; for MTD: read-out: MTD; for Ik index of toxic effect cumulation: intraperitoneal administration; for LD50: read-out: DL50 (average lethal dose)
Description: (3) acute toxicity of the compounds upon a single and repeated administration to white noninbred mice places into standard cages with 8 animals in each.
In the investigation of toxic properties of the compounds according to the present invention there has been determined the absolutely lethal dose (DL95), average lethal dose (DL50) and MTD. For compounds 1 and 2 there were determined DL95 and DL50 on healthy white mice with the body mass of 18-21 g at a single and repeated (once a day, daily for 7 days) intraperitoneal administration.

Solubility = assay type: physicochemical
Description: (§1) The compounds of the general formula (I), wherein X represents Cl^- (compound 1), Br^- (compound 2) are well-soluble in an isotonic solution of sodium chloride and they are administered intraperitoneally. The doses of the compounds have been calculated in mg per kg of the animal bodyweight.
To a mixture of 3 g of N^1,N^2 -dispirotripiperazinium dichloride, 1.5 g of lithium hydroxide, 1 ml of water and 10 ml of ether a solution of 5.2 g of β-bromopropionic acid chlorid in 5 ml of ether is added under vigorous stirring and at a temperature of 5° to 10° C. The reaction mass is stirred for 2 hours at the temperature of 15° C. The residue is filtered off, dissolved in 10 ml of water; the resulting aqueous solution is poured in 100 ml of methanol.

Ienssen's sarcoma = test: Growth of graft Ienssen sarcoma in rats; assay type: in vivo
Source text: (§2) The antitumor activity has been studied on white rats weighing 110-130 g, as well as on white noninbred and inbred mice weighing 17-21 g with ligated tumors. The treatment is started 5-7 days transplanting of solid tumors and the following day after the transplanting of leukotic strains. Use has been made of the following transplantable strains of the tumors:
(§3) (1) rats: Ienssen's sarcoma, sarcoma 45, sarcoma M-1, sarcoma 536;
as §1

sarcoma M-1 = test: Growth of graft sarcoma M-1 in rats; assay type: in vivo; details: rats, 85 mg/kg per os, 6 injections, one experiment
Source text: as §2, §3, §1

sarcoma 180 = test: Growth of graft sarcoma 180 in mice; assay type: in vivo, noninbred white mice
Source text: as §2
(2) noninbred white mice: sarcoma 180, sarcoma AK, sarcoma 37, carcinoma HK;
as §1

sarcoma 536 = test: Growth of graft sarcoma 536 in rats; assay type: in vivo; set-up: key to tumor growth suppression class, Sarcoma 536: +++: tumor growth suppression by 95-100%; ++: tumor growth suppression by 80-95%; +: tumor growth suppression by 60-80%; tumor growth suppression by 30-60%; 0: no effect; details: for tumor growth suppression class, Sarcoma 536: rats
Source text: as §2, §3, §1

leukemia La = test: Life span of mice with transplantable leukemia La; assay type: in vivo, inbred mice; details: mice with transplantable leukemia La
Source text: as §2
(§4) (3) inbred mice: leukemia La, leukemia L1210 and P-388.
(§5) The activity of compounds relative to leukosis has been assessed by the life span (It) of treated animals as compared to the control ones. It --index of suppression of leukosis development is calculated by the formula: [formula]

sarcoma 45 = test: Growth of graft sarcoma 45 in rats; assay type: in vivo; details: rats
Source text: as §2, §3, §1

[2] = Withdrawal of radioactivity from the rats' organism; assay type: in vivo; set-up: concentration or dose not given beside the values; details: 24 hours after intravenous administration, C^14-labeled
Source text: (§6) In the case of administration of the preparation according to the present invention labeled with C^14, a higher level of radioactivity in blood is observed than in the case of prospidin labeled with C^14. A higher rate of accumulation of the preparation according to the present invention as compared to prospidin is observed in larynx, windpipe, bronchi, bone marrow, tumor and thyroid gland. The preparation according to the present invention labeled with C^14 is withdrawn from the organism within 24 hours after the intravenous administration mainly with urine, while C^14 --labeled prospidin is retained in the organism for a longer period.

[3] = Distribution of C^14-labeled preparation within organs and tissues of rats with sarcoma M-1; assay type: in vivo; details: rats with sarcoma M-1, intravenous
Source text: Furthermore, the particular distribution of the preparation according to the present invention within organs and tissues should also be noted.
as §6

transplantable leukemia = test: Activity relative to leukoses of inbred mice (overall); assay type: in vivo
Source text: (2) activity of the compounds relative to leukoses of inbred mice;
as §2, §4, §5

leukemia L1210 = test: Life span of mice with transplantable leukemia L1210; assay type: in vivo, inbred mice; details: mice with transplantable leukemia L1210
Source text: as §2, §4, §5

leukemia P-388 = test: Life span of mice with transplantable leukemia P-388; assay type: in vivo, inbred mice; details: mice with transplantable leukemia P-388
Source text: as §2, §4, §5

[4] = mice, single intraperitoneal administration
[5] = ip, mice, single intraperitoneal administration
[6] = rats, per os, 145 mg/kg, 7 injections

Structure (SMILES): O=C(CCBr)N1CC[N+]2(CC1)CC[N+]1(CCN(C(=O)CCBr)CC1)CC2 [Compound 3]
- MTD ([1]; po, repeated administration, suspension per os): 83 mg/kg
- solubility in water (Solubility): sparingly soluble
- It, % tumor growth suppression index (Ienssen's sarcoma; rats, 83 mg/kg per os (MTD), 7 injections, one experiment): 50%
- Change in the animal body weight, test (Ienssen's sarcoma; rats, 83 mg/kg per os, 7 injections, one experiment): -7 g
- Change in the animal body weight, test (sarcoma M-1): +1 g
- suppression of sarcoma 180 growth (sarcoma 180; mice, per os, at MTD (dose not given)): 35

Structure (SMILES): CN(C)c1nc(NP(=O)(N2CC2)N2CC2)c2c(ncn2C)n1 [Phopurine, 2-dimethylamino-6-diethyleneimido-phosphamido-7-methylpurine, reference compound]
- Ik index of toxic effect cumulation ([1]; mice): 12
- DL95 (absolutely lethal dose) [1, 4]: 430 mg/kg
- LD50 [1, 5]: 280 mg/kg
- MTD ([1]; ip, repeated intraperitoneal administration): 120 mg/kg
- effect on the growth of sarcoma 536 (sarcoma 536; dose not given): does not affect the growth
- tumor growth suppression class, Sarcoma 536 (sarcoma 536): 0
- It, % index of suppression of leukosis development (leukemia La): 204%
- Life span (leukemia La): 22.5 ± 3.4 days
- slowing of the growth of sarcoma 180 (sarcoma 180; dose not given): 36%
- tumor growth suppression class, Sarcoma 180 (sarcoma 180; mice): + (tumor growth suppression by 60-80%)

Structure (SMILES): OC(CCl)CN1CC[N+]2(CC1)CC[N+]1(CCN(CC(O)CCl)CC1)CC2 (stereo not drawn) [Prospidin, 3,12-diaza-6,9-diazaniumdispiro-[5,2,5,2]-hexadecane-3,12-bis-(3-chloro-2-hydroxypropyl)-dichloride, reference compound]
- tumor growth suppression class, Sarcoma 45 (sarcoma 45): ++ (tumor growth suppression by 80-95%)
- Ik index of toxic effect cumulation ([1]; mice): 58
- DL95 (absolutely lethal dose) ([1]; mice, repeated intraperitoneal administration (once a day, daily for 7 days)): 250 mg/kg
- DL50 (average lethal dose) [1, 4]: 1,000 mg/kg
- DL95 (absolutely lethal dose) [1, 4]: 1200 mg/kg
- LD50 [1, 5]: 1000 mg/kg
- Withdrawal of radioactivity, Feces [2]: 7.0%
- Withdrawal of radioactivity, Total [2]: 75.0%
- Withdrawal of radioactivity, Urina [2]: 68.0%
- Coefficient of differential accumulation, Blood ([3]; 15 min): 0.4
- Coefficient of differential accumulation, Bone marrow ([3]; 15 min): 0.8
- Coefficient of differential accumulation, Bronchi ([3]; 15 min): 2.16
- Coefficient of differential accumulation, Hypophysis ([3]; 15 min): 2.4
- Coefficient of differential accumulation, Kidneys ([3]; 15 min): 3.34
- Coefficient of differential accumulation, Larynx ([3]; 15 min): 0.42
- Coefficient of differential accumulation, Liver ([3]; 15 min): 1.43
- Coefficient of differential accumulation, Lungs ([3]; 15 min): 1.54
- Coefficient of differential accumulation, Lymphonodes ([3]; 15 min): 0.57
- Coefficient of differential accumulation, Spleen ([3]; 15 min): 0.43
- Coefficient of differential accumulation, Thymus gland ([3]; 15 min): 0.16
- Coefficient of differential accumulation, Tumor ([3]; 15 min): 0.65
- Coefficient of differential accumulation, Tyroid gland ([3]; 15 min): 1.2
- Coefficient of differential accumulation, Windpipe ([3]; 15 min): 0.38
- Coefficient of differential accumulation, Blood ([3]; 30 min): 0.1
- Coefficient of differential accumulation, Bone marrow ([3]; 30 min): 0.6
- Coefficient of differential accumulation, Bronchi ([3]; 30 min): 0.82
- Coefficient of differential accumulation, Hypophysis ([3]; 30 min): 1.65
- Coefficient of differential accumulation, Kidneys ([3]; 30 min): 0.67
- Coefficient of differential accumulation, Larynx ([3]; 30 min): 0.32
- Coefficient of differential accumulation, Liver ([3]; 30 min): 0.75
- Coefficient of differential accumulation, Lungs ([3]; 30 min): 0.45
- Coefficient of differential accumulation, Lymphonodes ([3]; 30 min): 0.48
- Coefficient of differential accumulation, Spleen ([3]; 30 min): 0.21
- Coefficient of differential accumulation, Thymus gland ([3]; 30 min): 0.06
- Coefficient of differential accumulation, Tumor ([3]; 30 min): 0.37
- Coefficient of differential accumulation, Tyroid gland ([3]; 30 min): 1.06
- Coefficient of differential accumulation, Windpipe ([3]; 30 min): 0.21
- Coefficient of differential accumulation, Blood ([3]; 60 min): 0.07
- Coefficient of differential accumulation, Bone marrow ([3]; 60 min): 0.52
- Coefficient of differential accumulation, Bronchi ([3]; 60 min): 0.5
- Coefficient of differential accumulation, Hypophysis ([3]; 60 min): 1.47
- Coefficient of differential accumulation, Kidneys ([3]; 60 min): 0.56
- Coefficient of differential accumulation, Larynx ([3]; 60 min): 0.14
- Coefficient of differential accumulation, Liver ([3]; 60 min): 0.67
- Coefficient of differential accumulation, Lungs ([3]; 60 min): 0.2
- Coefficient of differential accumulation, Lymphonodes ([3]; 60 min): 0.14
- Coefficient of differential accumulation, Spleen ([3]; 60 min): 0.11
- Coefficient of differential accumulation, Thymus gland ([3]; 60 min): 0.05
- Coefficient of differential accumulation, Tumor ([3]; 60 min): 0.3
- Coefficient of differential accumulation, Tyroid gland ([3]; 60 min): 0.75
- Coefficient of differential accumulation, Windpipe ([3]; 60 min): 0.1
- Coefficient of differential accumulation, Blood ([3]; 24 hours): 0.01
- Coefficient of differential accumulation, Bone marrow ([3]; 24 hours): 0.18
- Coefficient of differential accumulation, Bronchi ([3]; 24 hours): 0.25
- Coefficient of differential accumulation, Hypophysis ([3]; 24 hours): 0.55
- Coefficient of differential accumulation, Kidneys ([3]; 24 hours): 0.15
- Coefficient of differential accumulation, Larynx ([3]; 24 hours): 0.05
- Coefficient of differential accumulation, Liver ([3]; 24 hours): 0.13
- Coefficient of differential accumulation, Lungs ([3]; 24 hours): 0.06
- Coefficient of differential accumulation, Lymphonodes ([3]; 24 hours): 0.04
- Coefficient of differential accumulation, Spleen ([3]; 24 hours): 0.06
- Coefficient of differential accumulation, Thymus gland ([3]; 24 hours): 0.02
- Coefficient of differential accumulation, Tumor ([3]; 24 hours): 0.07
- Coefficient of differential accumulation, Tyroid gland ([3]; 24 hours): 0.22
- Coefficient of differential accumulation, Windpipe ([3]; 24 hours): 0.07
- tumor growth suppression class, Sarcoma 536 (sarcoma 536): ++ (tumor growth suppression by 80-95%)
- Ch/T chemotherapeutical index (ratio of MTD to minimum effective dose) (Ienssen's sarcoma; Ienssen sarcoma): 27
- Change in the bodyweight of animals, test (Ienssen's sarcoma; [6]): -9 g
- It, % (Ienssen's sarcoma; [6]): +30%
- effect on transplantable leukemia in mice (transplantable leukemia): does not affect the development of leukemiae; also recorded: does not provide any effect
- It, % index of suppression of leukosis development (leukemia L1210): 0%
- Life span (leukemia L1210): 8.1 ± 0.1 days
- It, % index of suppression of leukosis development (leukemia P-388): 50%
- Life span (leukemia P-388): 14.8 ± 0.3 days
- It, % index of suppression of leukosis development (leukemia La): 0%
- Life span (leukemia La): 6.6 ± 0 days
- tumor growth suppression class, Sarcoma 180 (sarcoma 180; mice): ++ (tumor growth suppression by 80-95%)
